Source: patent publication US9028856B2, “Synergistic pesticide compositions” (priority 2008, dated 2015)

Experiments:
[1] = system: Argentine ant, Linepithema humile; experiment: Knockdown/mortality of ant workers under continuous exposure on treated glazed tile; settings: for toxicity / efficacy of the substance alone (summary in words): Argentine ant, treated glazed tile; for Average % Knockdown & Mortality after 1 hr / Average % Knockdown & Mortality after 2 hr / Average % Knockdown & Mortality after 30 min / Average % Knockdown & Mortality after 24 hr / Average % Knockdown & Mortality after 4 hr / Average % Knockdown & Mortality after 5 hr / Average % Knockdown & Mortality after 3 hr / Average % Knockdown & Mortality after 7 hr / Average % Knockdown & Mortality after 15 min / Average % Knockdown & Mortality after 6 hr / Average % Knockdown & Mortality after 18 hr: glazed tile
Protocol: (§1) Solutions of imidacloprid at 0.5% AI were prepared with and without methyl oleate @0.1, 1.0 and 5.0% in acetone. Treatments were applied using a micropipette to dispense 1 ml of test solution evenly on a 6″×6″ glazed tile. Actual coverage was about 5″×5″ (or 161 cm^2) for easy handling. Treatments were allowed to dry overnight. Ten Argentine ant workers were placed within a fluon or talc-coated PVC ring (φ7.6 cm×H 5.1 cm) under continuous exposure. A small vial filled with a cotton ball soaked in water was added as a drinking source after 3 hours. Treatments were replicated a minimum of three times. Evaluations for ant knockdown/mortality were made at various intervals and at 24 hours after exposure.
as §1, with “MATERIALS AND METHODS: Solutions” for “Solutions”, “linoleate” for “oleate”
as §1, with “MATERIALS AND METHODS: Solutions of” for “Solutions of”, “without methyl palmitate @0.1, 1.0” for “without methyl oleate @0.1, 1.0”, “after exposure. […]” for “after exposure.”

[2] = system: bait averse/resistant German cockroach (T-164 strain); experiment: Knockdown/mortality of male cockroaches under continuous exposure on treated glazed tile; format: in vivo, Blattella germanica; design: Average % Knockdown & Mortality after 5 hr / Average % Knockdown & Mortality after 30 min: concentration or dose not given beside the values; settings: for toxicity / efficacy of the substance alone (summary in words): German cockroach T-164, treated glazed tile; for Average % Knockdown & Mortality after 3 hr: Table 23, imidacloprid/tritylchloride in acetone; for Average % Knockdown & Mortality after 3 hr / Average % Knockdown & Mortality after 45 min: T-164 strain; for Average % Knockdown & Mortality after 45 min: Table 24, imidacloprid/dibutyl sebacate (DBS) in acetone
[3] = Table 14 (Ex. 11), continuous exposure
[4] = Table 15 (Ex. 12), glazed tile, continuous exposure
[5] = Table 15 (Ex. 12), glazed tile, continuous exposure, listed as Butylated hydroxyanisole (BHA) (1%)
[6] = Table 15 (Ex. 12), glazed tile, continuous exposure, listed as Butylated hydroxyanisole (BHA) (5%)
[7] = 2 hr, Table 22, imidacloprid/tritylchloride in acetone, continuous exposure
[8] = Table 22, imidacloprid/tritylchloride in acetone, continuous exposure
[9] = Table 8 (Ex. 5), continuous exposure, listed as Methyl Oleate (1%)
[10] = Table 8 (Ex. 5), continuous exposure, listed as Methyl Oleate (5%)
[11] = 2 hr, Table 25, imidacloprid/dibutyl sebacate (DBS) in acetone
[12] = 4 hr, Table 25, imidacloprid/dibutyl sebacate (DBS) in acetone
[13] = Table 19 (Ex. 16), continuous exposure
[14] = Table 19 (Ex. 16), continuous exposure, listed as TBHQ (0.1%)
[15] = Table 19 (Ex. 16), continuous exposure, listed as TBHQ (1%)
[16] = Table 19 (Ex. 16), continuous exposure, listed as TBHQ (5%)
[17] = Table 18 (Ex. 15), glazed tile, continuous exposure, listed as TBHQ (1%)
[18] = Table 18 (Ex. 15), glazed tile, continuous exposure, listed as TBHQ (5%)
[19] = Table 7 (Ex. 4), continuous exposure, listed as Oleic acid (0.1%)
[20] = Table 7 (Ex. 4), continuous exposure, listed as Oleic acid (5%)
[21] = Table 10 (Ex. 7), continuous exposure, listed as Methyl Linoleate (1%)
[22] = Table 10 (Ex. 7), continuous exposure, listed as Methyl Linoleate (5%)
[23] = Table 16 (Ex. 13), continuous exposure, listed as Butylated hydroxytoluene (BHT) (1%)
[24] = Table 16 (Ex. 13), continuous exposure, listed as Butylated hydroxytoluene (BHT) (5%)

ClC(c1ccccc1)(c1ccccc1)c1ccccc1 [Tritylchloride, triphenyl methyl chloride (tritylchloride)]
toxicity / efficacy of the substance alone (summary in words) [1]: not toxic
toxicity / efficacy of the substance alone (summary in words) [2]: not toxic

COc1ccc(O)c(C(C)(C)C)c1 [BHA, butylated hydroxyanisole]
toxicity / efficacy of the substance alone (summary in words) [1]: delayed toxicity
Average % Knockdown & Mortality after 1 hr [1, 3]: 0%
Average % Knockdown & Mortality after 2 hr [1, 3]: 0%
Average % Knockdown & Mortality after 30 min ([1]; Table 14 (Ex. 11), continuous exposure, UTC 63% at 24 hr): 0%
Average % Knockdown & Mortality after 24 hr ([1]; Table 14 (Ex. 11), continuous exposure, UTC 63% at 24 hr, listed as Butylated hydroxyanisole (BHA) (0.1%)): 37%
Average % Knockdown & Mortality after 24 hr ([1]; Table 14 (Ex. 11), continuous exposure, UTC 63% at 24 hr, listed as Butylated hydroxyanisole (BHA) (1%)): 40%
Average % Knockdown & Mortality after 24 hr ([1]; Table 14 (Ex. 11), continuous exposure, UTC 63% at 24 hr, listed as Butylated hydroxyanisole (BHA) (5%)): 74%
Average % Knockdown & Mortality after 4 hr ([1]; Table 14 (Ex. 11), continuous exposure, listed as Butylated hydroxyanisole (BHA) (0.1%)): 10%
Average % Knockdown & Mortality after 4 hr ([1]; Table 14 (Ex. 11), continuous exposure, listed as Butylated hydroxyanisole (BHA) (1%)): 3%
Average % Knockdown & Mortality after 4 hr ([1]; Table 14 (Ex. 11), continuous exposure, listed as Butylated hydroxyanisole (BHA) (5%)): 19%
toxicity / efficacy of the substance alone (summary in words) [2]: at the high rate (5%) was toxic to the German cockroach, but not at its lower rates (1.0 and 0.1%)
Average % Knockdown & Mortality after 30 min [2, 4]: 0%
Average % Knockdown & Mortality after 1 hr [2, 4]: 0%
Average % Knockdown & Mortality after 24 hr ([2]; Table 15 (Ex. 12), glazed tile, continuous exposure, listed as Butylated hydroxyanisole (BHA) (0.1%)): 20%
Average % Knockdown & Mortality after 2 hr [2, 5]: 0%
Average % Knockdown & Mortality after 4 hr [2, 5]: 0%
Average % Knockdown & Mortality after 24 hr [2, 5]: 0%
Average % Knockdown & Mortality after 2 hr [2, 6]: 20%
Average % Knockdown & Mortality after 4 hr [2, 6]: 20%
Average % Knockdown & Mortality after 24 hr [2, 6]: 73%

ClC(c1ccccc1)(c1ccccc1)c1ccccc1 [Tritylchloride (1%)]
Average % Knockdown & Mortality after 2 hr [1, 7]: 0%
Average % Knockdown & Mortality after 5 hr [1, 8]: 0%
Average % Knockdown & Mortality after 3 hr ([2]; glazed tile): 0%

ClC(c1ccccc1)(c1ccccc1)c1ccccc1 [Tritylchloride (0.1%)]
Average % Knockdown & Mortality after 2 hr [1, 7]: 0%
Average % Knockdown & Mortality after 5 hr [1, 8]: 0%
Average % Knockdown & Mortality after 3 hr ([2]; glazed tile): 0%

O=C(O)CCc1ccccc1 [benzenepropanoic acid]
toxicity / efficacy of the substance alone (summary in words) [1]: not toxic
Average % Knockdown & Mortality after 3 hr ([1]; Table 4 (Ex. 1), continuous exposure): 0%
Average % Knockdown & Mortality after 7 hr ([1]; Table 4 (Ex. 1), continuous exposure, listed as Benzenepropanoic acid(1%)): 0%
Average % Knockdown & Mortality after 7 hr ([1]; Table 4 (Ex. 1), continuous exposure, listed as Benzenepropanoic acid(5%)): 7%
toxicity / efficacy of the substance alone (summary in words) [2]: slightly to not toxic
Average % Knockdown & Mortality after 15 min ([2]; Table 5 (Ex. 2), glazed tile, continuous exposure): 0%

CCCCCCCC/C=C\CCCCCCCC(=O)OC [Methyl oleate, methyl oleate]
toxicity / efficacy of the substance alone (summary in words) [1]: toxic
Average % Knockdown & Mortality after 4 hr ([1]; Table 8 (Ex. 5), continuous exposure, listed as Methyl Oleate (0.1%)): 13%
Average % Knockdown & Mortality after 15 min [1, 9]: 0%
Average % Knockdown & Mortality after 4 hr [1, 9]: 55%
Average % Knockdown & Mortality after 15 min [1, 10]: 3%
Average % Knockdown & Mortality after 4 hr [1, 10]: 100%
toxicity / efficacy of the substance alone (summary in words) [2]: at the higher rates (1 & 5%) showed delayed toxic effect
Average % Knockdown & Mortality after 15 min ([2]; Table 9 (Ex. 6), glazed tile, continuous exposure, listed as Methyl Oleate (1%)): 0%
Average % Knockdown & Mortality after 15 min ([2]; Table 9 (Ex. 6), glazed tile, continuous exposure, listed as Methyl Oleate (5%)): 7%

CCCCOC(=O)CCCCCCCCC(=O)OCCCC [DBS (5%)]
Average % Knockdown & Mortality after 2 hr [1, 11]: 100%
Average % Knockdown & Mortality after 4 hr [1, 12]: 100%
Average % Knockdown & Mortality after 45 min ([2]; glazed tile): 0%

CC(C)(C)c1cc(O)ccc1O [TBHQ, tertiary butyl dihydroxyquinone]
toxicity / efficacy of the substance alone (summary in words) [1]: toxic effect
Average % Knockdown & Mortality after 30 min [1, 13]: 0%
Average % Knockdown & Mortality after 1 hr [1, 13]: 0%
Average % Knockdown & Mortality after 6 hr [1, 14]: 7%
Average % Knockdown & Mortality after 24 hr [1, 14]: 11%
Average % Knockdown & Mortality after 4 hr [1, 15]: 0%
Average % Knockdown & Mortality after 6 hr [1, 15]: 10%
Average % Knockdown & Mortality after 4 hr [1, 16]: 10%
Average % Knockdown & Mortality after 6 hr [1, 16]: 23%
Average % Knockdown & Mortality after 24 hr [1, 16]: 100%
toxicity / efficacy of the substance alone (summary in words) [2]: at the higher rates (1 & 5%) showed delayed toxic effect
Average % Knockdown & Mortality after 30 min ([2]; Table 18 (Ex. 15), glazed tile, continuous exposure): 0%
Average % Knockdown & Mortality after 24 hr ([2]; Table 18 (Ex. 15), glazed tile, continuous exposure, listed as TBHQ (0.1%)): 7%
Average % Knockdown & Mortality after 1 hr [2, 17]: 0%
Average % Knockdown & Mortality after 2 hr [2, 17]: 0%
Average % Knockdown & Mortality after 4 hr [2, 17]: 0%
Average % Knockdown & Mortality after 24 hr [2, 17]: 40%
Average % Knockdown & Mortality after 1 hr [2, 18]: 7%
Average % Knockdown & Mortality after 2 hr [2, 18]: 7%
Average % Knockdown & Mortality after 4 hr [2, 18]: 7%
Average % Knockdown & Mortality after 24 hr [2, 18]: 47%

CCCCCCCC/C=C\CCCCCCCC(=O)O [Oleic acid]
toxicity / efficacy of the substance alone (summary in words) [1]: at the high rates (1 & 5%) was toxic to the Argentine ants, but not at the low rate (0.1%)
Average % Knockdown & Mortality after 3 hr [1, 19]: 0%
Average % Knockdown & Mortality after 7 hr [1, 19]: 0%
Average % Knockdown & Mortality after 3 hr ([1]; Table 7 (Ex. 4), continuous exposure, listed as Oleic acid (1%)): 82%
Average % Knockdown & Mortality after 3 hr [1, 20]: 100%
Average % Knockdown & Mortality after 7 hr [1, 20]: 100%
toxicity / efficacy of the substance alone (summary in words) [2]: toxic to German cockroaches at the high rate (5%), but not toxic at the two low rates
Average % Knockdown & Mortality after 15 min ([2]; Table 6 (Ex. 3), glazed tile, continuous exposure): 0%

CCCCOC(=O)CCCCCCCCC(=O)OCCCC [DBS (0.1%)]
Average % Knockdown & Mortality after 2 hr [1, 11]: 0%
Average % Knockdown & Mortality after 4 hr [1, 12]: 9%
Average % Knockdown & Mortality after 45 min ([2]; glazed tile): 0%

CCCCC/C=C\C/C=C\CCCCCCCC(=O)OC [Methyl linoleate, methyl linoleate]
toxicity / efficacy of the substance alone (summary in words) [1]: at high rates (1 & 5%) was toxic
Average % Knockdown & Mortality after 4 hr ([1]; Table 10 (Ex. 7), continuous exposure, listed as Methyl Linoleate (0.1%)): 0%
Average % Knockdown & Mortality after 15 min [1, 21]: 0%
Average % Knockdown & Mortality after 4 hr [1, 21]: 7%
Average % Knockdown & Mortality after 15 min [1, 22]: 7%
Average % Knockdown & Mortality after 4 hr [1, 22]: 67%
toxicity / efficacy of the substance alone (summary in words) [2]: toxic
Average % Knockdown & Mortality after 15 min ([2]; Table 11 (Ex. 8), glazed tile, continuous exposure): 0%

ClC(c1ccccc1)(c1ccccc1)c1ccccc1 [Tritylchloride (5%)]
Average % Knockdown & Mortality after 2 hr [1, 7]: 0%
Average % Knockdown & Mortality after 5 hr [1, 8]: 0%
Average % Knockdown & Mortality after 3 hr ([2]; glazed tile): 0%

CCCCOC(=O)CCCCCCCCC(=O)OCCCC [DBS (1%)]
Average % Knockdown & Mortality after 2 hr [1, 11]: 0%
Average % Knockdown & Mortality after 4 hr [1, 12]: 77%
Average % Knockdown & Mortality after 45 min ([2]; glazed tile): 0%

Cc1cc(C(C)(C)C)c(O)c(C(C)(C)C)c1 [BHT, butylated hydroxytoluene]
toxicity / efficacy of the substance alone (summary in words) [1]: toxic
Average % Knockdown & Mortality after 18 hr ([1]; Table 16 (Ex. 13), continuous exposure, listed as Butylated hydroxytoluene (BHT) (0.1%)): 7%
Average % Knockdown & Mortality after 2 hr [1, 23]: 3%
Average % Knockdown & Mortality after 18 hr [1, 23]: 3%
Average % Knockdown & Mortality after 2 hr [1, 24]: 7%
Average % Knockdown & Mortality after 18 hr [1, 24]: 79%
toxicity / efficacy of the substance alone (summary in words) [2]: not toxic
Average % Knockdown & Mortality after 5 hr ([2]; Table 17 (Ex. 14), glazed tile, continuous exposure): 0%
